Reference: patent US12378250B2, “Tricyclic compound as IRAK4 inhibitor” (KOREA RESEARCH INSTITUTE OF CHEMICAL TECHNOLOGY, priority 2018, dated 2025)

How the values were obtained:
[1] = system: IFN-α secretion, peripheral blood mononuclear cells (PBMCs); test: Suppression of IFN-α secretion in ODN2216-treated PBMCs (ELISA); format: cell-based; conditions: PBMC, 500 nM ODN2216, 72 hours, read-out: IFN-α, % inhibition degree
Description: (§1) Peripheral blood mononuclear cells (PBMCs) isolated from whole blood were distributed in a 96-well plate. TNF-α was aliquoted at a density of 1×10^5 cells/well, IFN-α was aliquoted at a density of 2×10^5 cells/well, and TNF-α and IFN-α were treated with a compound diluted to 4-fold of a final concentration and totally cultured for 30 minutes. TNF-α was treated with 100 ng/ml lipopolysaccharide (LPS), IFN-α was treated with 500 nM ODN2216 (CpGTLR9 stimulator), and TNF-α and IFN-α were further cultured for 24 hours and 72 hours, respectively. An enzyme-linked immunosorbent assay (ELISA) was performed on TNF-α and IFN-α using an ELISA kit manufactured by BD Biosciences and an ELISA kit manufactured by PBL Assay Science, Inc., respectively. A cell supernatant and a standard drug were put into the ELISA plates and reacted for 2 hours. The plates were washed and a measurement antibody and streptavidin-HRP were sequentially added thereto. After the plates were washed, a TMB substrate was added thereto and reacted in a dark place. The reaction was stopped by adding a stop solution thereto, and the absorbance at 450 nm and 570 nm was measured using an absorber (OPTIMax tunable microplate reader, molecular devices). The experimental results are shown in [Table 2].

[2] = system: TNF-α secretion, peripheral blood mononuclear cells (PBMCs); test: Suppression of TNF-α secretion in LPS-treated PBMCs (ELISA); format: cell-based; conditions: PBMC, 100 ng/ml LPS, 24 hours, read-out: TNF-α, % inhibition degree
Description: as §1

IRAK4 enzyme = target: T1, IRAK4 enzyme (Homo sapiens, UniProt Q9NWZ3); test: IRAK4 enzyme inhibition degree (bead-based kinase assay, peptide substrate BMKC-2, 100 μM ATP); format: biochemical; conditions: for inhibition at 1 µM: compound 1 μM
T1 sequence (Q9NWZ3 1-460): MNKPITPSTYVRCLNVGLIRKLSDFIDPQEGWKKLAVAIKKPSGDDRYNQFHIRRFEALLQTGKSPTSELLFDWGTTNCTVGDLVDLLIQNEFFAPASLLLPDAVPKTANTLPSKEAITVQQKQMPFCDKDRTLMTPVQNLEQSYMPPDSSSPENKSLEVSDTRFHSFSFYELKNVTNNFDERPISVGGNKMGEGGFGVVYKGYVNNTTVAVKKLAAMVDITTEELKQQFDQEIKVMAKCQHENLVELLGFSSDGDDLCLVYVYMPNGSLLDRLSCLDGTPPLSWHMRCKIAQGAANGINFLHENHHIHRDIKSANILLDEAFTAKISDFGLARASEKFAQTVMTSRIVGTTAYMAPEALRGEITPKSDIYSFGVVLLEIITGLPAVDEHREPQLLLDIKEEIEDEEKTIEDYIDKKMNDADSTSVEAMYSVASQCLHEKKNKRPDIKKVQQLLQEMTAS
Description: 2.5 μl of a compound diluted to 4-fold of a final concentration was put into a 384-well white plate (low volume). 2.5 μl of 0.4 ng/μl IRAK4 enzyme was added thereto, and the resulting mixture was totally reacted for 10 minutes. 5 μl of a mixed liquid of a 6 μM peptide substrate (BMKC-2) and 100 μM ATP was added thereto, the resulting mixture was reacted at room temperature for 60 minutes, then 2.5 μl of 10 mM EDTA was added thereto, and the resulting mixture was reacted again for 10 minutes. 40 nM anti-phospho Thr antibody was aliquoted to 2.5 μl each, 5 μl of a mixed solution of a 160 μl/ml acceptor bead and a donor bead was added thereto, and then the resulting mixture was reacted at room temperature for 60 minutes. Fluorescence signals were measured using a bead experimental apparatus (Fusion alpha-FP Microplate Reader, Perkin Elmer Inc.).
From the detected signal, an activity inhibition rate [% inhibition degree=(the average value of a compound−the average value of a negative control)/(the average value of a positive control−the average value of a negative control)×100] was calculated, and is shown in [Table 1]. Further, a % inhibition degree of the compound at each concentration was obtained, and then a 50% inhibition concentration (IC50 value) was analyzed by a non-linear regression analysis.

[3] = system: NF-κB promoter, THP1-Lucia™ NF-κB cell line; test: NF-κB promoter inhibition, THP1-Lucia NF-κB cell line; format: cell-based; conditions: 100 ng/ml LPS, 24 hours, read-out: NF-κB, % inhibition degree
Description: (§2) A THP1-Lucia™ NF-κB cell line (Invivogen) was used in an NF-κB inhibition experiment, and a THP1-Lucia™ ISG cell line was used in an ISG inhibition experiment. In the NF-κB inhibition experiment, cells were planted at a density of 1×10^4 cells/well in a 96-well plate, and in the ISG inhibition experiment, cells were planted at a density of 2×10^4 cells/well in a 96-well plate. The cells were treated with a compound diluted to 4-fold of a final concentration, and totally cultured for 30 minutes. NF-κB was treated with 100 ng/ml lipopolysaccharide (LPS), ISG was treated with a stimulator of 1 μg/ml Poly(dA:dT)/LyoVec, and NF-κB and ISG were cultured for 24 hours. 10 μl of a cell supernatant was taken and transferred to a 96-well plate. 50 μl of a Quanti-luc solution was aliquoted using an automatic aliquoter of a measurer (Envision Multilabel Plate Reader, Perkin Elmer, Inc.), and light emission signals were measured.

[4] = system: ISG promoter, THP1-Lucia™ ISG cell line; test: ISG promoter inhibition, THP1-Lucia ISG cell line; format: cell-based; conditions: 1 μg/ml Poly(dA:dT)/LyoVec, 24 hours, read-out: ISG, % inhibition degree
Description: as §2

Structure (SMILES)	IC50 (IRAK4 enzyme)	inhibition at 1 µM (IRAK4 enzyme)	inhibition at 0.1 µM [1]	inhibition at 1 µM [1]	inhibition at 0.1 µM [2]	inhibition at 1 µM [2]	inhibition at 0.1 µM [3]	inhibition at 1 µM [3]	inhibition at 0.1 µM [4]	inhibition at 1 µM [4]
Cn1cc(-c2ccc3[nH]c4ncnc(N[C@H]5CC[C@H](N(C)C)CC5)c4c3c2)cn1 [Compound 6abb, trans-N1,N1-dimethyl-N4-(6-(1-methyl-1H-pyrazol-4-yl)-9H-pyrimido[4,5-b]indol-4-yl)cyclohexane-1,4-diamine]	10 nM	82%	54%	90.4%	17.9%	79.4%	50%	83%	42%	73%
Fc1ccc(-c2ccc3[nH]c4ncnc(N[C@H]5CC[C@H](N6CCOCC6)CC5)c4c3c2)cc1 [Compound 6aan, 6-(4-fluorophenyl)-N-(trans-4-morpholinocyclohexyl)-9H-pyrimido[4,5-b]indole-4-amine]	61 nM	82%	28%	71%	9%	32%	< 1%	28%	< 1%	6%
c1cc(-c2ccc3[nH]c4ncnc(N[C@H]5CC[C@H](N6CCOCC6)CC5)c4c3c2)ccn1 [Compound 6aab, N-(trans-4-morpholinocyclohexyl)-6-(pyridin-4-yl)-9H-pyrimido[4,5-b]indole-4-amine]	18.4 nM	100%	31%	94%	44%	114%	8%	61%	11%	54%
CN(C)[C@H]1CC[C@H](Nc2ncnc3[nH]c4ccc(-c5cncc(F)c5)cc4c23)CC1 [Compound 6aba, trans-N1-(6-(5-fluoropyridin-3-yl)-9H-pyrimido[4,5-b]indol-4-yl)-N4,N4-dimethylcyclohexane-1,4-diamine]	4 nM	83%	3.4%	81.3%	39.1%	73.3%	40%	87%	33%	83%
Cn1cc(-c2ccc3[nH]c4ncnc(Nc5ccc(N6CCNCC6)cc5)c4c3c2)cn1 [Compound 6agaa, 6-(1-methyl-1H-pyrazol-4-yl)-N-(4-(piperazin-1-yl)phenyl)-9H-pyrimido[4,5-b]indole-4-amine]	1140 nM	36%	39%	65%	17%	27%	< 1%	24%	7%	16%
Oc1cncc(-c2ccc3[nH]c4ncnc(N[C@H]5CC[C@H](N6CCOCC6)CC5)c4c3c2)c1 [Compound 6aae, 5-(4-((trans-4-morpholinocyclohexyl)amino)-9H-pyrimido[4,5-b]indol-6-yl)pyridine-3-ol]	2 nM	100%	48%	92%	12%	53%	< 1%	40%	4%	29%
CN(C)CCOc1cncc(-c2ccc3[nH]c4ncnc(N[C@H]5CC[C@H](N6CCOCC6)CC5)c4c3c2)c1 [Compound 6aag, 6-(5-(2-(dimethylamino)ethoxy)pyridin-3-yl)-N-(trans-4-morpholinocyclohexyl)-9H-pyrimido[4,5-b]indole-4-amine]	31 nM	82%	6.4%	89.5%	16.7%	51.4%	12%	37%	20%	52%

Second part, led by results:

IC50 (IRAK4 enzyme)	inhibition at 1 µM (IRAK4 enzyme)	Structure (SMILES)	inhibition at 0.1 µM [1]	inhibition at 1 µM [1]	inhibition at 0.1 µM [2]	inhibition at 1 µM [2]	inhibition at 0.1 µM [3]	inhibition at 1 µM [3]	inhibition at 0.1 µM [4]	inhibition at 1 µM [4]
–	100%	Cn1cc(-c2ccc3[nH]c4nccc(N[C@H]5CC[C@H](N6CCOCC6)CC5)c4c3c2)cn1 [Compound 17a]	67%	103%	22%	75%	31%	78%	14%	93%
29 nM	83%	CCOC(=O)c1ccc2[nH]c3ncnc(N[C@H]4CC[C@H](N5CCOCC5)CC4)c3c2c1 [Compound 5ba, ethyl 4-((trans-4-morpholinocyclohexyl)amino)-9H-pyrimido[4,5-b]indole-6-carboxylate]	27%	73.9%	31.7%	41.3%	48%	89%	37%	78%
128 nM	99%	COC(=O)c1ccc2c(c1)[nH]c1ncnc(N[C@H]3CC[C@H](N4CCOCC4)CC3)c12 [Compound 5da, methyl 4-((trans-4-morpholinocyclohexyl)amino)-9H-pyrimido[4,5-b]indole-7-carboxylate]	10%	40%	10%	40%	5%	30%	1%	20%
7.2 nM	100%	COc1cncc(-c2ccc3[nH]c4nccc(N[C@H]5CC[C@H](N6CCOCC6)CC5)c4c3c2)c1 [Compound 17b, 6-(5-methoxypyridin-3-yl)-N-(trans-4-morpholinocyclohexyl)-9H-pyrimido[2,3-b]indole-4-amine]	76%	110%	12%	63%	14%	62%	4%	80%
